Source: US20230293526A1, “METHOD FOR TREATING CANCER WITH A REVERSE TRANSCRIPTASE INHIBITOR” (PrimeFour Therapeutics, Inc., priority 2020, published 2023)

Test system: cancer cell lines
Experiment: Cancer cell proliferation activity of representative nucleosides, CellTiterGlo 72 h (Example 7, Tables 8 and 9)
Format: cell-based
Method: Dose response relationships on cell proliferation was assessed for representative nucleosides on cancer cell lines. Briefly, compound treatment of cells started one day after seeding with a final DMSO concentration of 0.1%, and was performed by nanodrop-dispensing using a Tecan Dispenser. 0.1% DMSO (solvent) and Staurosporine (10 μM) served as high control (100% viability) and low control (0% viability), respectively. Cells were cultured in the appropriate media. For the assays, cells were seeded in white cell culture-treated flat and clear bottom multiwell plates and incubated at 37° C. overnight before compound was added. After incubation for 72 h at 37° C. at 5% or 10% CO2 dependent on the medium, cell plates were equilibrated to room temperature for one hour, CellTiterGlo reagent (Promega) was added and luminescence was measured approximately an hour later using a luminometer.
Raw data were converted into percent cell viability relative to the high and low control, which were set to 100% and 0%, respectively.

IC50 (72 h, 5637, 72 h (Table 9)): > 50 µM | IC50 (72 h, CLS439, 72 h (Table 9)): > 50 µM | IC50 (72 h, HS729, 72 h (Table 9)): > 50 µM | IC50 (72 h, J82, 72 h (Table 9)): 4.88 µM | IC50 (72 h, JAR, 72 h (Table 9)): > 50 µM | IC50 (72 h, MT3, 72 h (Table 9)): 3.77 µM | IC50 (72 h, PC3, 72 h (Table 9)): > 50 µM | IC50 (72 h, RD, 72 h (Table 9)): > 50 µM | IC50 (72 h, T24, 72 h (Table 9)): 3.01 µM | IC50 (Homo sapiens, 22Rv1, 72 h, 22RV1, 72 h (Table 9)): 1.06 µM | IC50 (Homo sapiens, 786-0, 72 h, 786O, 72 h (Table 9)): > 50 µM | IC50 (Homo sapiens, A204, 72 h, A204, 72 h (Table 9)): 2.55 µM | IC50 (Homo sapiens, A549, 72 h, A549, 72 h (Table 9)): > 50 µM | IC50 (Homo sapiens, A673, 72 h, A673, 72 h (Table 9)): 5.25 µM | IC50 (Homo sapiens, A2780, 72 h, A2780, 72 h (Table 9)): > 50 µM | IC50 (Homo sapiens, A-375, 72 h, A375, 72 h (Table 9)): > 50 µM | IC50 (Homo sapiens, A-431, 72 h, A431, 72 h (Table 9)): 2.6 µM | IC50 (Homo sapiens, ACHN, 72 h, 72 h (Table 9)): 4.02 µM | IC50 (Homo sapiens, ASPC1, 72 h, ASPC1, 72 h (Table 9)): > 50 µM | IC50 (Homo sapiens, BT-20, 72 h, BT20, 72 h (Table 9)): > 50 µM | IC50 (Homo sapiens, BXPC-3, 72 h, BXPC3, 72 h (Table 9)): 6.34 µM | IC50 (Homo sapiens, C-33-A, 72 h, C33A, 72 h (Table 9)): 1.75 µM | IC50 (Homo sapiens, CAKI-1, 72 h, CAKI1, 72 h (Table 9)): > 50 µM | IC50 (Homo sapiens, COLO 205, 72 h, COLO205, 72 h (Table 9)): > 50 µM | IC50 (Homo sapiens, COLO-678, 72 h, COLO678, 72 h (Table 9)): > 50 µM | IC50 (Homo sapiens, Ca-Ski, 72 h, CASKI, 72 h (Table 9)): > 50 µM | IC50 (Homo sapiens, Caco-2, 72 h, CACO2, 72 h (Table 9)): > 50 µM | IC50 (Homo sapiens, Calu-6, 72 h, CALU6, 72 h (Table 9)): > 50 µM | IC50 (Homo sapiens, DLD-1, 72 h, DLD1, 72 h (Table 9)): 4.59 µM | IC50 (Homo sapiens, DU-145, 72 h, DU145, 72 h (Table 9)): 5.46 µM | IC50 (Homo sapiens, EFO-21, 72 h, EFO21, 72 h (Table 9)): > 50 µM | IC50 (Homo sapiens, EJ-28, 72 h, EJ28, 72 h (Table 9)): > 50 µM | IC50 (Homo sapiens, Granta-519, 72 h, GRANTA-519, 72 h (Table 9)): 3.15 µM | IC50 (Homo sapiens, HCT-15, 72 h, HCT15, 72 h (Table 9)): > 50 µM | IC50 (Homo sapiens, HCT-116, 72 h, HCT116, 72 h (Table 9)): > 50 µM | IC50 (Homo sapiens, HEK293, 72 h, HEK293, 72 h (Table 9)): > 50 µM | IC50 (Homo sapiens, HL-60, 72 h, HL-60, 72 h (Table 9)): > 50 µM | IC50 (Homo sapiens, HT-29, 72 h, HT29, 72 h (Table 9)): > 50 µM | IC50 (Homo sapiens, HT-1080, 72 h, HT1080, 72 h (Table 9)): > 50 µM | IC50 (Homo sapiens, HeLa, 72 h, 72 h (Table 9)): > 50 µM | IC50 (Homo sapiens, HepG2, 72 h, HEPG2, 72 h (Table 9)): 5.08 µM | IC50 (Homo sapiens, Hs-578T, 72 h, HS578T, 72 h (Table 9)): > 50 µM | IC50 (Homo sapiens, IGROV-1, 72 h, IGROV1, 72 h (Table 9)): > 50 µM | IC50 (Homo sapiens, IMR-90, 72 h, IMR90, 72 h (Table 9)): > 50 µM | IC50 (Homo sapiens, JEG-3, 72 h, JEG3, 72 h (Table 9)): > 50 µM | IC50 (Homo sapiens, JIMT-1, 72 h, JIMT1, 72 h (Table 9)): > 50 µM | IC50 (Homo sapiens, K562, 72 h, K-562, 72 h (Table 9)): > 50 µM | IC50 (Homo sapiens, Kasumi 1, 72 h, KASUMI-1, 72 h (Table 9)): > 50 µM | IC50 (Homo sapiens, L-363, 72 h, L-363, 72 h (Table 9)): > 50 µM | IC50 (Homo sapiens, LoVo, 72 h, 72 h (Table 9)): 3.55 µM | IC50 (Homo sapiens, MCF7, 72 h, MCF7, 72 h (Table 9)): > 50 µM | IC50 (Homo sapiens, MDA-MB-231, 72 h, MDAMB231, 72 h (Table 9)): > 50 µM | IC50 (Homo sapiens, MDA-MB-435, 72 h, MDAMB435, 72 h (Table 9)): > 50 µM | IC50 (Homo sapiens, MDA-MB-436, 72 h, MDAMB436, 72 h (Table 9)): 5.24 µM | IC50 (Homo sapiens, MDA-MB-468, 72 h, MDAMB468, 72 h (Table 9)): > 50 µM | IC50 (Homo sapiens, MG-63, 72 h, MG63, 72 h (Table 9)): > 50 µM | IC50 (Homo sapiens, MHH-ES-1, 72 h, MHHES1, 72 h (Table 9)): 3.07 µM | IC50 (Homo sapiens, MIA PaCa-2, 72 h, MIAPACA2, 72 h (Table 9)): > 50 µM | IC50 (Homo sapiens, MINO, 72 h, 72 h (Table 9)): 3.91 µM | IC50 (Homo sapiens, MV4-11, 72 h, MV4-11, 72 h (Table 9)): 0.38 µM | IC50 (Homo sapiens, NCI-H23, 72 h, NCI-H23, 72 h (Table 9)): 4.05 µM | IC50 (Homo sapiens, NCI-H82, 72 h, NCIH82, 72 h (Table 9)): 5.25 µM | IC50 (Homo sapiens, NCI-H292, 72 h, NCIH292, 72 h (Table 9)): > 50 µM | IC50 (Homo sapiens, NCI-H460, 72 h, NCIH460, 72 h (Table 9)): 2.8 µM | IC50 (Homo sapiens, OVCAR-3, 72 h, OVCAR3, 72 h (Table 9)): > 50 µM | IC50 (Homo sapiens, OVCAR-4, 72 h, OVCAR4, 72 h (Table 9)): > 50 µM | IC50 (Homo sapiens, PANC-1, 72 h, PANC1, 72 h (Table 9)): > 50 µM | IC50 (Homo sapiens, PLC-PRF-5, 72 h, PLCPRF5, 72 h (Table 9)): 5.05 µM | IC50 (Homo sapiens, Panc1005, 72 h, PANC1005, 72 h (Table 9)): > 50 µM | IC50 (Homo sapiens, Ramos, 72 h, 72 h (Table 9)): > 50 µM | IC50 (Homo sapiens, SAOS-2, 72 h, SAOS2, 72 h (Table 9)): > 50 µM | IC50 (Homo sapiens, SF-268, 72 h, SF268, 72 h (Table 9)): 14.6 µM | IC50 (Homo sapiens, SF-295, 72 h, SF295, 72 h (Table 9)): > 50 µM | IC50 (Homo sapiens, SK-BR-3, 72 h, SKBR3, 72 h (Table 9)): 3.44 µM | IC50 (Homo sapiens, SK-HEP1, 72 h, SKHEP1, 72 h (Table 9)): 3.15 µM | IC50 (Homo sapiens, SK-LMS-1, 72 h, SKLMS1, 72 h (Table 9)): 2.88 µM | IC50 (Homo sapiens, SK-MEL-5, 72 h, SKMEL5, 72 h (Table 9)): > 50 µM | IC50 (Homo sapiens, SK-MEL-28, 72 h, SKMEL28, 72 h (Table 9)): > 50 µM | IC50 (Homo sapiens, SK-N-AS, 72 h, SKNAS, 72 h (Table 9)): > 50 µM | IC50 (Homo sapiens, SK-N-SH, 72 h, SKNSH, 72 h (Table 9)): > 50 µM | IC50 (Homo sapiens, SK-OV-3, 72 h, SKOV3, 72 h (Table 9)): > 50 µM | IC50 (Homo sapiens, SNB-75, 72 h, SNB75, 72 h (Table 9)): 4.52 µM | IC50 (Homo sapiens, SU-DHL10, 72 h, SU-DHL-10, 72 h (Table 9)): > 50 µM | IC50 (Homo sapiens, SU-DHL-6, 72 h, SU-DHL-6, 72 h (Table 9)): 3.92 µM | IC50 (Homo sapiens, SW-620, 72 h, SW620, 72 h (Table 9)): > 50 µM | IC50 (Homo sapiens, TE-671, 72 h, TE671, 72 h (Table 9)): > 50 µM | IC50 (Homo sapiens, THP-1, 72 h, THP-1, 72 h (Table 9)): 2.49 µM | IC50 (Homo sapiens, U2OS, 72 h, 72 h (Table 9)): > 50 µM | IC50 (Homo sapiens, U-87 MG, 72 h, U87MG, 72 h (Table 9)): 5.23 µM | IC50 (Homo sapiens, UMUC3, 72 h, UMUC3, 72 h (Table 9)): > 50 µM | IC50 (Homo sapiens, UO-31, 72 h, UO31, 72 h (Table 9)): > 50 µM | IC50 (Homo sapiens, WSU-NHL, 72 h, 72 h (Table 9)): 4.26 µM | IC50 (NCI-H358M, 72 h, NCIH358M, 72 h (Table 9)): > 50 µM | IC50 (PBMC, 72 h, 72 h (Table 9)): > 50 µM | IC50 (RD-ES, 72 h, RDES, 72 h (Table 9)): 3.65 µM
Structure (SMILES): Cc1cn([C@H]2C[C@H](O)[C@@](C#N)(CO)O2)c(=O)[nH]c1=O [compound 31]
